Results reported in the supplement of paper PMC13207355.

Experiments:
Settings in all cases: exposure time: 72 h
E34 [1] = patient-derived glioblastoma stem cells of proneural subtype; test: phenotypic distance (Euclidean, principal components) from DMSO controls (arbitrary units); higher = stronger morphological change
E13 [2] = patient-derived glioblastoma stem cells of classical subtype; test: as above
E31 [3] = patient-derived glioblastoma stem cells of proneural subtype; test: as above
FT3469 [4] = normal neural stem cell line; test: as above
E28 [5] = patient-derived glioblastoma stem cells of classical subtype; test: as above
E57 [6] = patient-derived glioblastoma stem cells of mesenchymal subtype; test: as above
E21 [7] = patient-derived glioblastoma stem cells of mesenchymal subtype; test: as above
E34 [8] = test: surviving fraction (nuclei count normalised to DMSO); higher = more cells surviving (less toxic)
E13 [9] = test: as above
E31 [10] = test: as above
FT3469 [11] = test: as above
E28 [12] = test: as above
E57 [13] = test: as above
E21 [14] = test: as above
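Wherever phenotypic distance (Euclidean, principal components) from DMSO controls is given: cell Painting imaging in 384-well plates, CellProfiler features reduced to at least 20 principal components, Euclidean distance versus same-plate DMSO vehicle wells (0.1% v/v), median over six images per well.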
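Wherever surviving fraction (nuclei count normalised to DMSO) is given: nuclei counted by high-content imaging of Hoechst-stained cells in laminin-coated 384-well plates, relative to 0.1% DMSO vehicle wells, with staurosporine as cell-death control.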

Cn1nnc2c(C(N)=O)ncn2c1=O [Temozolomide]
Settings	phenotypic distance	surviving fraction
E13 [2], 4.1 nM	0.92	–
E13 [2], 12.3 nM	0.797	–
E13 [2], 37 nM	0.786	–
E13 [2], 111.1 nM	0.576	–
E13 [2], 333.3 nM	0.8	–
E13 [2], 1000 nM	0.525	–
E13 [2], 3000 nM	0.666	–
E13 [9], 4.1 nM	–	0.934
E13 [9], 12.3 nM	–	0.862
E13 [9], 37 nM	–	0.932
E13 [9], 111.1 nM	–	0.981
E13 [9], 333.3 nM	–	0.909
E13 [9], 1000 nM	–	0.936
E13 [9], 3000 nM	–	1.04
E21 [7], 4.1 nM	1.04	–
E21 [7], 12.3 nM	0.604	–
E21 [7], 37 nM	0.561	–
E21 [7], 111.1 nM	0.642	–
E21 [7], 333.3 nM	1.07	–
E21 [7], 1000 nM	0.394	–
E21 [7], 3000 nM	0.971	–
E21 [14], 4.1 nM	–	0.919
E21 [14], 12.3 nM	–	0.974
E21 [14], 37 nM	–	0.955
E21 [14], 111.1 nM	–	0.899
E21 [14], 333.3 nM	–	0.883
E21 [14], 1000 nM	–	0.988
E21 [14], 3000 nM	–	0.862
E28 [5], 4.1 nM	0.473	–
E28 [5], 12.3 nM	0.496	–
E28 [5], 37 nM	0.568	–
E28 [5], 111.1 nM	0.62	–
E28 [5], 333.3 nM	0.378	–
E28 [5], 1000 nM	0.593	–
E28 [5], 3000 nM	0.453	–
E28 [12], 4.1 nM	–	0.981
E28 [12], 12.3 nM	–	0.95
E28 [12], 37 nM	–	1.11
E28 [12], 111.1 nM	–	1.02
E28 [12], 333.3 nM	–	1.06
E28 [12], 1000 nM	–	0.921
E28 [12], 3000 nM	–	0.979
E31 [3], 4.1 nM	1.06	–
E31 [3], 12.3 nM	2.72	–
E31 [3], 37 nM	0.892	–
E31 [3], 111.1 nM	0.246	–
E31 [3], 333.3 nM	0.629	–
E31 [3], 1000 nM	0.411	–
E31 [3], 3000 nM	0.89	–
E31 [10], 4.1 nM	–	0.882
E31 [10], 12.3 nM	–	0.904
E31 [10], 37 nM	–	0.833
E31 [10], 111.1 nM	–	1.02
E31 [10], 333.3 nM	–	1.02
E31 [10], 1000 nM	–	0.972
E31 [10], 3000 nM	–	0.803
E34 [1], 4.1 nM	0.82	–
E34 [1], 12.3 nM	0.663	–
E34 [1], 37 nM	0.714	–
E34 [1], 111.1 nM	0.388	–
E34 [1], 333.3 nM	0.867	–
E34 [1], 1000 nM	0.392	–
E34 [1], 3000 nM	0.466	–
E34 [8], 4.1 nM	–	0.988
E34 [8], 12.3 nM	–	0.89
E34 [8], 37 nM	–	1.01
E34 [8], 111.1 nM	–	0.947
E34 [8], 333.3 nM	–	1.06
E34 [8], 1000 nM	–	1.02
E34 [8], 3000 nM	–	1.07
E57 [6], 4.1 nM	0.77	–
E57 [6], 12.3 nM	0.543	–
E57 [6], 37 nM	0.294	–
E57 [6], 111.1 nM	0.599	–
E57 [6], 333.3 nM	0.816	–
E57 [6], 1000 nM	0.662	–
E57 [6], 3000 nM	1.29	–
E57 [13], 4.1 nM	–	0.946
E57 [13], 12.3 nM	–	0.909
E57 [13], 37 nM	–	0.95
E57 [13], 111.1 nM	–	0.958
E57 [13], 333.3 nM	–	0.951
E57 [13], 1000 nM	–	0.953
E57 [13], 3000 nM	–	0.931
FT3469 [4], 4.1 nM	1.43	–
FT3469 [4], 12.3 nM	1.01	–
FT3469 [4], 37 nM	0.484	–
FT3469 [4], 111.1 nM	0.802	–
FT3469 [4], 333.3 nM	0.852	–
FT3469 [4], 1000 nM	0.793	–
FT3469 [4], 3000 nM	0.513	–
FT3469 [11], 4.1 nM	–	1.01
FT3469 [11], 12.3 nM	–	0.927
FT3469 [11], 37 nM	–	1
FT3469 [11], 111.1 nM	–	0.936
FT3469 [11], 333.3 nM	–	1.18
FT3469 [11], 1000 nM	–	0.822
FT3469 [11], 3000 nM	–	1.04

Cc1cc(CN2CCN(c3c(Br)cnc4nc(-c5ccc(N6CCN(C)CC6)cc5)[nH]c34)CC2)no1
Settings	phenotypic distance	surviving fraction
E13 [2], 4.1 nM	0.33	–
E13 [2], 12.3 nM	0.336	–
E13 [2], 37 nM	0.51	–
E13 [2], 111.1 nM	0.456	–
E13 [2], 333.3 nM	1.86	–
E13 [2], 1000 nM	4.59	–
E13 [2], 3000 nM	13.4	–
E13 [9], 4.1 nM	–	0.995
E13 [9], 12.3 nM	–	0.966
E13 [9], 37 nM	–	0.963
E13 [9], 111.1 nM	–	0.91
E13 [9], 333.3 nM	–	0.676
E13 [9], 1000 nM	–	0.528
E13 [9], 3000 nM	–	0.0986
E21 [7], 4.1 nM	1.03	–
E21 [7], 12.3 nM	0.842	–
E21 [7], 37 nM	0.688	–
E21 [7], 111.1 nM	0.989	–
E21 [7], 333.3 nM	2.77	–
E21 [7], 1000 nM	5.77	–
E21 [7], 3000 nM	7.03	–
E21 [14], 4.1 nM	–	0.936
E21 [14], 12.3 nM	–	0.864
E21 [14], 37 nM	–	0.9
E21 [14], 111.1 nM	–	0.917
E21 [14], 333.3 nM	–	0.6
E21 [14], 1000 nM	–	0.387
E21 [14], 3000 nM	–	0.0348
E28 [5], 4.1 nM	1.13	–
E28 [5], 12.3 nM	1.52	–
E28 [5], 37 nM	1.01	–
E28 [5], 111.1 nM	1.29	–
E28 [5], 333.3 nM	1.23	–
E28 [5], 1000 nM	2.97	–
E28 [5], 3000 nM	5.6	–
E28 [12], 4.1 nM	–	1.15
E28 [12], 12.3 nM	–	0.888
E28 [12], 37 nM	–	1.09
E28 [12], 111.1 nM	–	0.916
E28 [12], 333.3 nM	–	0.806
E28 [12], 1000 nM	–	0.392
E28 [12], 3000 nM	–	0.163
E31 [3], 4.1 nM	0.99	–
E31 [3], 12.3 nM	1.9	–
E31 [3], 37 nM	1.97	–
E31 [3], 111.1 nM	0.784	–
E31 [3], 333.3 nM	1.62	–
E31 [3], 1000 nM	3.36	–
E31 [3], 3000 nM	10.2	–
E31 [10], 4.1 nM	–	1.02
E31 [10], 12.3 nM	–	0.782
E31 [10], 37 nM	–	0.994
E31 [10], 111.1 nM	–	0.867
E31 [10], 333.3 nM	–	0.511
E31 [10], 1000 nM	–	0.334
E31 [10], 3000 nM	–	0.00629
E34 [1], 4.1 nM	1.02	–
E34 [1], 12.3 nM	1.13	–
E34 [1], 37 nM	0.858	–
E34 [1], 111.1 nM	0.728	–
E34 [1], 333.3 nM	2.67	–
E34 [1], 1000 nM	2.84	–
E34 [1], 3000 nM	8.59	–
E34 [8], 4.1 nM	–	0.839
E34 [8], 12.3 nM	–	0.842
E34 [8], 37 nM	–	1.09
E34 [8], 111.1 nM	–	0.872
E34 [8], 333.3 nM	–	0.827
E34 [8], 1000 nM	–	0.618
E34 [8], 3000 nM	–	0.26
E57 [6], 4.1 nM	0.499	–
E57 [6], 12.3 nM	0.684	–
E57 [6], 37 nM	0.82	–
E57 [6], 111.1 nM	1.16	–
E57 [6], 333.3 nM	5.64	–
E57 [6], 1000 nM	8.26	–
E57 [6], 3000 nM	9.56	–
E57 [13], 4.1 nM	–	0.974
E57 [13], 12.3 nM	–	0.888
E57 [13], 37 nM	–	0.906
E57 [13], 111.1 nM	–	0.871
E57 [13], 333.3 nM	–	0.651
E57 [13], 1000 nM	–	0.325
E57 [13], 3000 nM	–	0.0382
FT3469 [4], 4.1 nM	1.38	–
FT3469 [4], 12.3 nM	0.929	–
FT3469 [4], 37 nM	1.76	–
FT3469 [4], 111.1 nM	1.44	–
FT3469 [4], 333.3 nM	1.88	–
FT3469 [4], 1000 nM	2.37	–
FT3469 [4], 3000 nM	9.55	–
FT3469 [11], 4.1 nM	–	0.662
FT3469 [11], 12.3 nM	–	0.758
FT3469 [11], 37 nM	–	0.843
FT3469 [11], 111.1 nM	–	0.737
FT3469 [11], 333.3 nM	–	0.705
FT3469 [11], 1000 nM	–	0.676
FT3469 [11], 3000 nM	–	0.37
